Values after ≈ are worked out from the molar mass of the structure shown. Values joined by “and” are separate entries in the source; they are usually repeats but may differ in a detail not shown here. Equal values may be shown once. Read-outs that look alike come from different tables or passages of the source.
Experiments:
[1] = system: Pasteurella multocida; assay: Pasteurella infection in one-day-old chicks, medicated drinking water (Table XIII); format: in vivo; details: Administered in the available drinking water at 2 g/gal
Outline: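 Oral dosing was by medicated drinking water (2 g/gal), offered from 4–20 h pre-infection and through a 3-day observation period. The chicks, one day old, were infected s.c. with 0.1 ml of a 10^-4-diluted, 20-h tryptose broth culture of avian Pasteurella multocida.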

[2] = system: Staphyloccus aureus X1.1; assay: MIC, standard agar-dilution assay (Table IX); format: cell-based, Staphylococcus aureus; details: Staphylococcus aureus, read-out: MIC
[3] = system: Staphylococcus epidermidis 222; assay: MIC, standard agar-dilution assay (Table IX); format: cell-based; details: read-out: MIC
[4] = system: Haemophilus influenzae 76; assay: MIC, standard agar-dilution assay (Table IX); format: cell-based; details: Haemophilus influenzae 76, Ampicillin-resistant strain, read-out: MIC
[5] = system: Streptococcus pneumoniae Park I; assay: MIC, standard agar-dilution assay (Table IX); format: cell-based; details: Streptococcus pneumoniae Park I; agar-dilution; read-out: MIC
[6] = system: Streptococcus pyogenes C203; assay: ED50 in mice experimentally infected with S. pyogenes C203 (Table XI); format: in vivo; details: Streptococcus pyogenes, doses given 1 and 4 hours postinfection, read-out: ED50
Outline: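 Protective ED50 (mg/kg × 2) was determined as the dose sparing half the animals. Test compound was given twice, at 1 and 4 hours after experimental S. pyogenes C203 infection of mice.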

[7] = system: Staphylococcus aureus S13E; assay: MIC, standard agar-dilution assay (Table IX); format: cell-based; details: Staphylococcus aureus, S13E
[8] = system: Escherichia coli EC14; assay: MIC, standard agar-dilution assay (Table IX); format: cell-based; details: read-out: MIC
[9] = system: Pasteurella multocida; assay: Pasteurella infection in one-day-old chicks, subcutaneous administration (Table XII); format: in vivo; details: Administered subcutaneously, 30 mg/kg × 2, 1 and 4 hours post-challenge
Outline: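 Treatment was 30 mg/kg s.c., given twice (1 and 4 h after infection). The infection itself was induced in day-old chicks by s.c. injection of 0.1 ml of avian Pasteurella multocida culture (20-h tryptose broth, diluted 10^-4).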

[10] = system: Escherichia coli N10; assay: MIC, standard agar-dilution assay (Table IX); format: cell-based; details: read-out: MIC
[11] = system: Streptococcus Group D 2041; assay: MIC, standard agar-dilution assay (Table IX); format: cell-based; details: GROUPD2041, read-out: MIC
[12] = system: Staphylococcus epidermidis EPI1; assay: MIC, standard agar-dilution assay (Table IX); format: cell-based; details: Staphylococcus epidermidis EPI1; agar-dilution; read-out: MIC
[13] = system: Pasteurella hemolytica 22C; assay: MIC, broth-dilution microtiter test (Table X); format: cell-based; details: read-out: MIC
Source text: (§1) The MIC's in Table X were obtained using conventional broth-dilution microtiter tests.

[14] = system: Mycoplasma gallisepticum 29C; assay: MIC, broth-dilution microtiter test (Table X); format: cell-based; details: Mycoplasmoides gallisepticum, read-out: MIC
Source text: as §1

[15] = system: Mycoplasma synoviae 40A; assay: MIC, broth-dilution microtiter test (Table X); format: cell-based; details: Mycoplasmopsis synoviae, read-out: MIC
Source text: as §1

[16] = system: Mycoplasma hyorhinis 29E; assay: MIC, broth-dilution microtiter test (Table X); format: cell-based; details: read-out: MIC
Source text: as §1

[17] = system: Mycoplasma hyopneumoniae S5972; assay: MIC, broth-dilution microtiter test (Table X); format: cell-based; details: Mesomycoplasma hyopneumoniae, read-out: MIC
Source text: as §1

[18] = system: Pasteurella multocida 60A; assay: MIC, broth-dilution microtiter test (Table X); format: cell-based; details: Avian isolate, read-out: MIC
Source text: as §1

[19] = system: Streptococcus sp. 19F; assay: MIC, broth-dilution microtiter test (Table X); format: cell-based; details: read-out: MIC
Source text: as §1

[20] = system: Staphylococcus aureus 19C; assay: MIC, broth-dilution microtiter test (Table X); format: cell-based
Source text: as §1

[21] = system: Pasteurella multocida 17E; assay: MIC, broth-dilution microtiter test (Table X); format: cell-based; details: Bovine isolate, read-out: MIC
Source text: as §1

[22] = system: Staphylococcus aureus X400; assay: MIC, standard agar-dilution assay (Table IX); format: cell-based; details: Staphylococcus aureus X400, Methicillin-resistant strain, read-out: MIC
[23] = system: Staphylococcus aureus V41; assay: MIC, standard agar-dilution assay (Table IX); format: cell-based; details: Staphylococcus aureus V41, Penicillin-resistant strain, read-out: MIC
[24] = Blood and tissue levels after a single injection; format: in vivo
Source text: A special advantage of this invention is that certain of the compounds are effective when administered as a single injection.

[25] = system: Klebsiella X26; assay: MIC, standard agar-dilution assay (Table IX); format: cell-based; details: read-out: MIC
[26] = system: Escherichia coli TEM; assay: MIC, standard agar-dilution assay (Table IX); format: cell-based; details: read-out: MIC
[27] = system: Haemophilus influenzae C.L.; assay: MIC, standard agar-dilution assay (Table IX); format: cell-based; details: Ampicillin-sensitive strain, read-out: MIC
[28] = system: Streptococcus Group D X66; assay: MIC, standard agar-dilution assay (Table IX); format: cell-based; details: read-out: MIC
[29] = system: Streptococcus pyogenes C203; assay: MIC, standard agar-dilution assay (Table IX); format: cell-based; details: read-out: MIC

For `CCC1OC(=O)CC(O)C(C)C(OC2OC(C)C(O)C(N(C)C)C2O)C(CCN2C[C@H](C)C[C@H](C)C2)CC(C)C(=O)C=CC(C)=CC1COC1OC(C)C(O)C(OC)C1OC` (stereo partly drawn) [Compound D34, 20-DH-DO-20-(cis-3,5-dimethylpiperidine-1-yl)desmycosin], the “Number of Deaths/Number Treated” value [1] was 3/10 and 0/10 and 1/10 and 6/10, the MIC [2] was 1 µg/mL (≈ 1.15 µM) and the MIC [3] was 0.25 µg/mL (≈ 0.288 µM). The MIC [4] was 4 µg/mL (≈ 4.6 µM), the MIC [5] was 2 µg/mL (≈ 2.3 µM) and the ED50 ([6]; C203, Oral) was 7.98 mg/kg. The ED50 ([6]; C203, sc, Subcutaneous) was < 0.625 mg/kg, the MIC [7] was 0.5 µg/mL (≈ 0.575 µM) and the MIC [8] was 128 µg/mL (≈ 147 µM). For the same compound, the “Number of Deaths/Number Treated” value [9] was 3/10, the MIC [10] was 128 µg/mL (≈ 147 µM) and the MIC [11] was 8 µg/mL (≈ 9.2 µM). It also gave an MIC [12] of 0.5 µg/mL (≈ 0.575 µM), an MIC [13] of 6.25 µg/mL (≈ 7.19 µM) and an MIC [14] of 0.195 µg/mL (≈ 0.224 µM). The MIC [15] was 0.78 µg/mL (≈ 0.897 µM), the MIC [16] was 12.5 µg/mL (≈ 14.4 µM) and the MIC [17] was 0.78 µg/mL (≈ 0.897 µM). It also gave an MIC [18] of 12.5 µg/mL (≈ 14.4 µM), an MIC [19] of 3.12 µg/mL (≈ 3.59 µM) and an MIC [20] of 3.12 µg/mL (≈ 3.59 µM). The MIC [21] was 12.5 µg/mL (≈ 14.4 µM), the MIC [22] was 1 µg/mL (≈ 1.15 µM) and the MIC [23] was 1 µg/mL (≈ 1.15 µM). For the same compound, the “measurable blood and tissue levels of the drug” value [24] was “prolonged measurable blood and tissue levels of the drug for as long as seven days”, the MIC [25] was 64 µg/mL (≈ 73.6 µM) and the MIC [26] was 32 µg/mL (≈ 36.8 µM). It also gave an MIC [27] of 16 µg/mL (≈ 18.4 µM), an MIC [28] of 4 µg/mL (≈ 4.6 µM) and an MIC [29] of 0.5 µg/mL (≈ 0.575 µM).

Reference: patent publication US4820695A, “C-20-dihydro-deoxy-(cyclic amino)-derivatives of macrolide antibiotics” (priority 1987, dated 1989)
